The first assay concerns the target T1, OGA (Homo sapiens, UniProt O60502).
T1 construct: endogenous in cells; host or cells: HEK293 cells inducible for P301L mutant human Tau (2N4R)
T1 sequence (O60502 1-916): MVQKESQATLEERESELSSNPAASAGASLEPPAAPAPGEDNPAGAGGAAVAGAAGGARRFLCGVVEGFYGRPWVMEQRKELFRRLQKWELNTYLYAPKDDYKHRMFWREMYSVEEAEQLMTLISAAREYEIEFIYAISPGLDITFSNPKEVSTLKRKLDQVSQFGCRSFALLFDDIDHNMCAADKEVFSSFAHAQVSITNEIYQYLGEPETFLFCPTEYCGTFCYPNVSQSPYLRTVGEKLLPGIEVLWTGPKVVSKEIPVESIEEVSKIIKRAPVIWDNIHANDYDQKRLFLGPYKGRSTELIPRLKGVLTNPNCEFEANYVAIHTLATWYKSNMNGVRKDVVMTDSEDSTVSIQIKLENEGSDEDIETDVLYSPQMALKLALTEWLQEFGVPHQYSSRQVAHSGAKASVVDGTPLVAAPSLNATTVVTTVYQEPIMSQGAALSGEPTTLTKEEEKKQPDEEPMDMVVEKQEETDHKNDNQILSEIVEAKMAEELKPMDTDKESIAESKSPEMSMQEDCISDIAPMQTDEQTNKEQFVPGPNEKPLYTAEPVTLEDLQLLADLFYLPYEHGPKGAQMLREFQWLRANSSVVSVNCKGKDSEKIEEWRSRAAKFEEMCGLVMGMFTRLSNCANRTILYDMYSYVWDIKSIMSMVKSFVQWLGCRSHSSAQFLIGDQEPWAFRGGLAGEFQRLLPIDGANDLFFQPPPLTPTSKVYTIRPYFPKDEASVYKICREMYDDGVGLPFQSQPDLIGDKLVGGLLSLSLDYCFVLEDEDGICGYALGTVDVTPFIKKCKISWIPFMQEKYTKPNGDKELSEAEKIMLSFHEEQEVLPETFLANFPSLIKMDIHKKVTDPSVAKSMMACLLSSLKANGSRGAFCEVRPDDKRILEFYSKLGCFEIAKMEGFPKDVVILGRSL
Description: OGA cellular assay (ICC detection of O-GlcNAcylated proteins in HEK293 cells inducible for P301L mutant human Tau). The class given is cell-based. The settings on record: HEK293, HEK293 cells inducible for P301L mutant human Tau, maximal effect; Thiamet G 200 uM as maximum. The protocol:
HEK293 cells inducible for P301L mutant human Tau (isoform 2N4R) were established at Janssen. Thiamet-G was used for both plate validation (high control) and as reference compound (reference EC50 assay validation). OGA inhibition is evaluated through the immunocytochemical (ICC) detection of O-GlcNAcylated proteins by the use of a monoclonal antibody (CTD110.6; Cell Signaling, #9875) detecting 0-GlcNAcylated residues as previously described (Dorfmueller et al. 2010 Chemistry & biology, 17:1250). Inhibition of OGA will result in an increase of O-GlcNAcylated protein levels resulting in an increased signal in the experiment. Cell nuclei are stained with Hoechst to give a cell culture quality control and a rough estimate of immediate compounds toxicity, if any. ICC pictures are imaged with a Perkin Elmer Opera Phenix plate microscope and quantified with the provided software Perkin Elmer Harmony 4.1.
Cells were propagated in DMEM high Glucose (Sigma, #D5796) following standard procedures. 2 days before the cell assay cells are split, counted and seeded in Poly-D-Lysine (PDL) coated 96-wells (Greiner, #655946) plate at a cell density of 12,000 cells per cm^2 (4,000 cells per well) in 100 μl of Assay Medium (Low Glucose medium is used to reduce basal levels of GlcNAcylation) (Park et al. 2014 The Journal of biological chemistry 289:13519). At the day of compound test medium from assay plates was removed and replenished with 90 μl of fresh Assay Medium. 10 μl of compounds at a 10 fold final concentration were added to the wells. Plates were centrifuged shortly before incubation in the cell incubator for 6 hours. DMSO concentration was set to 0.2%. Medium is discarded by applying vacuum. For staining of cells medium was removed and cells washed once with 100 μl D-PBS (Sigma, #D8537). From next step onwards unless other stated assay volume was always 50 μl and incubation was performed without agitation and at room temperature. Cells were fixed in 50 μl of a 4% paraformaldehyde (PFA, Alpha aesar, #043368) PBS solution for 15 minutes at room temperature. […] Before analysis samples were washed 2 times manually for 5 minutes in ICC base buffer.
Imaging is performed using Perkin Elmer Phenix Opera using a water 20× objective and recording 9 fields per well. Intensity readout at 488 nm is used as a measure of O-GlcNAcylation level of total proteins in wells. To assess potential toxicity of compounds nuclei were counted using the Hoechst staining. IC50-values are calculated using parametric non-linear regression model fitting. As a maximum inhibition Thiamet G at a 200 uM concentration is present on each plate. In addition, a concentration response of Thiamet G is calculated on each plate.
As a reminder, the Emax is the greatest response seen or fitted, relative to the assay's reference. In the case of `Cc1cnc(OC2CCCN(C(C)c3ccc4c(n3)OCCO4)C2)c(C)n1` (stereo not drawn) [Product 133], the Emax was 62%.

In the case of `Cc1cc(OC[C@@H]2CCCN(C(C)c3cnc4c(c3)OCCN4)C2)cc(C)n1` (stereo partly drawn) [Product 145], the Emax turned out to be 35%.

For `Cc1cc(C[C@H]2CCCN(C(C)c3cnc4c(c3)OCCN4C)C2)cc(C)n1` (mixture of isomers) [Product 56], the Emax is 78%.

Take `Cc1cc(CC2CN(C(C)c3ccc4c(n3)OCCO4)CCC2O)cc(C)n1` (stereo not drawn) [Product 173]: the Emax was 64%.

For `Cc1cc([C@H]2CCCN([C@H](C)c3ccc4c(n3)OCCO4)C2)c(F)c(C)n1` (single isomer, unassigned) [Product 186], the Emax is -6%.

For `COc1cc(OC[C@H]2CCCN(C(C)c3ccc4c(n3)OCCO4)C2)cc(C)n1` (single isomer, unassigned) [Product 184], the Emax is -17%.

Regarding `Cc1cc([C@H]2CCCN([C@@H](C)c3ccc4c(c3)OCC4)C2)cc(C)n1` (racemic) [Product 4], the Emax was found to be 70%.

The assay is the same for the next values; noted with them: HEK293 cells inducible for P301L mutant human Tau, 6 hours incubation; read-out: Cellular hOGA; pEC50 (converted).
With `Cc1cnc(OC2CCCN(C(C)c3ccc4c(n3)OCCO4)C2)c(C)n1` (stereo not drawn) [Product 133], the EC50 was 501 nM.

Consider `Cc1cc(CO[C@H]2CCCN(C(C)c3ccc4c(n3)OCCO4)C2)cc(C)n1` (single isomer, unassigned) [Product 166], for which the EC50 is 100 nM.

Consider `Cc1cc(OC[C@@H]2CCCN(C(C)c3cnc4c(c3)OCCN4)C2)cc(C)n1` (stereo partly drawn) [Product 145], for which the EC50 was more than 1000 nM.

As to `Cc1cc(CO[C@H]2CCCN(C(C)c3nc4c(cc3F)OCCO4)C2)cc(C)n1` (single isomer, unassigned) [Product 169], the EC50 is more than 1000 nM.

Regarding `Cc1cc(C[C@H]2CCCN(C(C)c3cnc4c(c3)OCCN4C)C2)cc(C)n1` (mixture of isomers) [Product 56], the EC50 is 316 nM.

For the compound `Cc1cc(CC2CN(C(C)c3ccc4c(n3)OCCO4)CCC2O)cc(C)n1` (stereo not drawn) [Product 173], the EC50 was 631 nM.

`Cc1cc([C@H]2CCCN([C@H](C)c3ccc4c(n3)OCCO4)C2)c(F)c(C)n1` (single isomer, unassigned) [Product 186]: the EC50 is more than 1000 nM.

For `COc1cc(OC[C@H]2CCCN(C(C)c3ccc4c(n3)OCCO4)C2)cc(C)n1` (single isomer, unassigned) [Product 184], the EC50 is more than 1000 nM.

Regarding `Cc1cc([C@H]2CCCN([C@@H](C)c3ccc4c(c3)OCC4)C2)cc(C)n1` (racemic) [Product 4], the EC50 was 20 nM.

Staying with this assay, now noted: HEK293 cells inducible for P301L mutant human Tau, maximal effect; Thiamet G 200 uM as maximum.
As to `Cc1cc(CO[C@H]2CCCN(C(C)c3ccc4c(n3)OCCO4)C2)cc(C)n1` (single isomer, unassigned) [Product 166], the “Cellular Emax (%)” value turned out to be 67%.

`Cc1cc(CO[C@H]2CCCN(C(C)c3nc4c(cc3F)OCCO4)C2)cc(C)n1` (single isomer, unassigned) [Product 169]: the “Cellular Emax (%)” value is reported as −5%.

The next assay has as its target T2, recombinant human Meningioma Expressed Antigen 5 (MGEA5), also referred to as O-GlcNAcase (OGA) (Homo sapiens, UniProt O60502).
T2 construct: Full length OGA enzyme was purchased at OnGene (cat #TP322411); purchased OnGene (so in the source)
T2 sequence (O60502 1-916): T1 sequence (O60502 1-916)
Put plainly: OGA biochemical assay (inhibition of FM-GlcNAc hydrolysis, fluorescence). The settings on record: maximal effect, read-out: Enzymatic Emax (%). An excerpt: The assay is based on the inhibition of the hydrolysis of fluorescein mono-β-D-N-Acetyl-Glucosamine (FM-GlcNAc) (Mariappa et al. 2015, Biochem J 470:255) by the recombinant human Meningioma Expressed Antigen 5 (MGEA5), also referred to as O-GlcNAcase (OGA). The hydrolysis FM-GlcNAc (Marker Gene technologies, cat #M1485) results in the formation of β-D-N-glucosamineacetate and fluorescein. The fluorescence of the latter can be measured at excitation wavelength 485 nm and emission wavelength 538 nm. An increase in enzyme activity results in an increase in fluorescence signal. Full length OGA enzyme was purchased at OnGene (cat #TP322411). The enzyme was stored in 25 mM Tris.HCl, pH 7.3, 100 mM glycine, 10% glycerol at −20° C. Thiamet G and GlcNAcStatin were tested as reference compounds (Yuzwa et al. 2008 Nature Chemical Biology 4:483; Yuzwa et al. 2012 Nature Chemical Biology 8:393). The assay was performed in 200 mM Citrate/phosphate buffer supplemented with 0.005% Tween-20. 35.6 g Na2HPO42H2O (Sigma, #C0759) were dissolved in 1 L water to obtain a 200 mM solution. 19.2 g citric acid (Merck, #1.06580) was dissolved in 1 L water to obtain a 100 mM solution. pH of the sodiumphosphate solution was adjusted with the citric acid solution to 7.2. The buffer to stop the reaction consists of a 500 mM Carbonate buffer, pH 11.0. 734 mg FM-GlcNAc were dissolved in 5.48 mL DMSO to obtain a 250 mM solution and was stored at −20° C. OGA was used at a 2 nM concentration and FM-GlcNAc at a 100 uM final concentration. Dilutions were prepared in assay buffer.
50 nl of a compound dissolved in DMSO was dispensed on Black Proxiplate TM 384 Plus Assay plates (Perkin Elmer, #6008269) and 3 μl fl-OGA enzyme mix added subsequently. Plates were pre-incubated for 60 min at room temperature and then 2 μl FM-GlcNAc substrate mix added. […] Plates were briefly centrifuged for 1 min at 1000 rpm and incubate at room temperature for 6 h. To stop the reaction 5 μl STOP buffer were added and plates centrifuge again 1 min at 1000 rpm. Fluorescence was quantified in the Thermo Scientific Fluoroskan Ascent or the PerkinElmer EnVision with excitation wavelength 485 nm and emission wavelength 538 nm.
For analysis a best-fit curve is fitted by a minimum sum of squares method. From this an IC50 value and Hill coefficient was obtained. High control (no inhibitor) and low control (saturating concentrations of standard inhibitor) were used to define the minimum and maximum values.
For `Cc1cnc(OC2CCCN(C(C)c3ccc4c(n3)OCCO4)C2)c(C)n1` (stereo not drawn) [Product 133], the Emax came to 103%.

For `Cc1cc(CO[C@H]2CCCN(C(C)c3ccc4c(n3)OCCO4)C2)cc(C)n1` (single isomer, unassigned) [Product 166], the Emax came out at 98%.

Regarding `Cc1cc(OC[C@@H]2CCCN(C(C)c3cnc4c(c3)OCCN4)C2)cc(C)n1` (stereo partly drawn) [Product 145], the Emax was determined as 99%.

For the compound `Cc1cc(CO[C@H]2CCCN(C(C)c3nc4c(cc3F)OCCO4)C2)cc(C)n1` (single isomer, unassigned) [Product 169], the Emax is 85%.

`Cc1cc(C[C@H]2CCCN(C(C)c3cnc4c(c3)OCCN4C)C2)cc(C)n1` (mixture of isomers) [Product 56]: the Emax worked out at 102%.

Take `Cc1cc(CC2CN(C(C)c3ccc4c(n3)OCCO4)CCC2O)cc(C)n1` (stereo not drawn) [Product 173]: the Emax came out at 99%.

`Cc1cc([C@H]2CCCN([C@H](C)c3ccc4c(n3)OCCO4)C2)c(F)c(C)n1` (single isomer, unassigned) [Product 186]: the Emax worked out at 83%.

On to `COc1cc(OC[C@H]2CCCN(C(C)c3ccc4c(n3)OCCO4)C2)cc(C)n1` (single isomer, unassigned) [Product 184], for which the Emax is 87%.

Regarding `Cc1cc([C@H]2CCCN([C@@H](C)c3ccc4c(c3)OCC4)C2)cc(C)n1` (racemic) [Product 4], the Emax was found to be 103%.

The same assay, now with this note: read-out: Enzymatic hOGA, pIC50 (converted).
For the compound `Cc1cnc(OC2CCCN(C(C)c3ccc4c(n3)OCCO4)C2)c(C)n1` (stereo not drawn) [Product 133], the IC50 is 15.8 nM.

As for `Cc1cc(CO[C@H]2CCCN(C(C)c3ccc4c(n3)OCCO4)C2)cc(C)n1` (single isomer, unassigned) [Product 166], the IC50 was 10 nM.

`Cc1cc(OC[C@@H]2CCCN(C(C)c3cnc4c(c3)OCCN4)C2)cc(C)n1` (stereo partly drawn) [Product 145]: the IC50 is 251 nM.

Turning to `Cc1cc(CO[C@H]2CCCN(C(C)c3nc4c(cc3F)OCCO4)C2)cc(C)n1` (single isomer, unassigned) [Product 169], the IC50 was 2000 nM.

Turning to `Cc1cc(C[C@H]2CCCN(C(C)c3cnc4c(c3)OCCN4C)C2)cc(C)n1` (mixture of isomers) [Product 56], the IC50 was 15.8 nM.

For the compound `Cc1cc(CC2CN(C(C)c3ccc4c(n3)OCCO4)CCC2O)cc(C)n1` (stereo not drawn) [Product 173], the IC50 was 63.1 nM.

In the case of `Cc1cc([C@H]2CCCN([C@H](C)c3ccc4c(n3)OCCO4)C2)c(F)c(C)n1` (single isomer, unassigned) [Product 186], the IC50 was 2000 nM.

For `COc1cc(OC[C@H]2CCCN(C(C)c3ccc4c(n3)OCCO4)C2)cc(C)n1` (single isomer, unassigned) [Product 184], the IC50 was 2000 nM.

`Cc1cc([C@H]2CCCN([C@@H](C)c3ccc4c(c3)OCC4)C2)cc(C)n1` (racemic) [Product 4]: the IC50 was 5.01 nM.

These data come from patent US20210300943A1, “OGA INHIBITOR COMPOUNDS” (Janssen Pharmaceutica NV, priority 2018, published 2021).
